Each block holds one compound with its values, some of them ahead of it.
Tests used:
Tel7 (DNA, G4) TTAGGGT [1] = assay: fluorescence titration; settings: K+ (100 mM KCl, 10 mM potassium phosphate; quadruplex annealing buffer), pH 7.0, 25 °C; for Kd1: site 1 of 2
Tel7 (DNA, G4) TTAGGGT [2] = assay: NMR titration, NOESY and restrained MD structure; settings: K+; 298 K, H2O/D2O 9:1; stacks at T1pT2 and G6pT7; imino signals persist to 343 K versus lost at 323 K
[3] = system: c-myc (DNA, G4) TGAGGGTGGTGAGGGTGGGGAAGG; assay: fluorescence titration; settings: K+ (100 mM KCl, 10 mM potassium phosphate; quadruplex annealing buffer); pH 7.0, 25 °C; site 1 of 2
[4] = system: c-kit21up (DNA, G4) CGGGCGGGCGCGAGGGAGGGG; assay: fluorescence titration; settings: K+ (100 mM KCl, 10 mM potassium phosphate; quadruplex annealing buffer); pH 7.0, 25 °C; single site
[5] = system: Tel22 (DNA, G4) AGGGTTAGGGTTAGGGTTAGGG; assay: fluorescence titration; settings: K+ (100 mM KCl, 10 mM potassium phosphate; quadruplex annealing buffer); pH 7.0, 25 °C; site 1 of 2

Kd1 (Tel7 (DNA, G4) TTAGGGT [1]): 38 nM
Structure (SMILES): C[C@@H]1O[C@@H](OC[C@H]2O[C@@H](Oc3c(-c4ccc(O)c(O)c4)oc4cc(O)cc(O)c4c3=O)[C@H](O)[C@@H](O)[C@@H]2O)[C@H](O)[C@H](O)[C@H]1O

Kd (Tel7 (DNA, G4) TTAGGGT [1]; same value under Kd1 and Kd2 (single binding pattern)): 26.5 µM
Structure (SMILES): O=c1c(-c2ccc(O)cc2)coc2cc(O)cc(O)c12

Kd1 [3]: 138 nM
Kd1 (Tel7 (DNA, G4) TTAGGGT [1]): 4.9 nM
Kd1 [4]: 1.13 µM
Kd1 [5]: 30.2 nM
Structure (SMILES): O=c1c(O)c(-c2ccc(O)c(O)c2)oc2cc(O)cc(O)c12
binding (Tel7 (DNA, G4) TTAGGGT [2]): yes

Kd1 (Tel7 (DNA, G4) TTAGGGT [1]): 23 nM
Structure (SMILES): O=c1cc(-c2ccc(O)c(O)c2)oc2cc(O)cc(O)c12
